From PMC10165273, “Itch receptor MRGPRX4 interacts with the receptor activity–modifying proteins” (The Journal of Biological Chemistry, 2023)
Values joined by “and” are separate entries in the source; they are usually repeats but may differ in a detail not shown here. Equal values may be shown once. Read-outs that look alike come from different tables or passages of the source.

Columns and labels:
Format in all cases: cell-based
MRGPRX4 + RAMP1 = target: T1, MRGPRX4 + RAMP1 (Homo sapiens, UniProt Q96LA9); assay: IP1 accumulation, MRGPRX4 coexpressed with RAMP1; design: key to IP1 Basal / response to agonist, X4:ramp1.I:1 / response to agonist, X4:ramp1.I:2 / response to agonist, X4:ramp1.I:0.25 / response to agonist, X4:ramp1.I:0.5: % IP1; unstimulated mock = 0%, fully stimulated MRGPRX4 = 100%; settings: for activation at 100 µM / activation at 20 µM / activation at 0.8 µM / activation at […] / activation at 0.032 µM / activation at 4 µM: 2 h, Fig S3d, read-out: IP1 accumulation; for activation at 100 µM: log [DCA] (M) -4; for activation at 20 µM: log [DCA] (M) -4.69897; for activation at 0.8 µM: log [DCA] (M) -6.09691; for activation at […]: log [DCA] (M) -6.79588; for activation at 0.032 µM: log [DCA] (M) -7.49485; for activation at 4 µM: log [DCA] (M) -5.39794; for response to agonist, X4:ramp1.I:0.25 / response to agonist, X4:ramp1.I:0.5 / response to agonist, X4:ramp1.I:1 / response to agonist, X4:ramp1.I:2: Figure 4c-f, agonist 100µM, MRGPRX4 = 100; for response to agonist, X4:ramp1.I:0.25: X4:ramp1 1:0.25; for response to agonist, X4:ramp1.I:0.5: X4:ramp1 1:0.5; for response to agonist, X4:ramp1.I:1: X4:ramp1 1:1; for response to agonist, X4:ramp1.I:2: X4:ramp1 1:2
T1 construct: expressed in transfected cells; host or cells: HEK293T
Protocol: HEK293T cells were transfected with 1 pg/cell of MRGPRX4 DNA, and the amount of DNA was kept constant at 2 pg/cell with pcDNA3.1(+) empty vector, unless otherwise specified. Twenty four hours after transfection, IP1 assay was performed as previously described ([51]). When applicable, cells were treated with 1 μM YM254890 (YM) or different concentrations of U73122 for 1 h prior to addition of agonist or buffer. After incubation for 2 h, HTRF reagents and IP1 calibration standards were added and incubated for 2 h in the dark at room temperature. Time-resolved fluorescence signals were read on the BioTek Synergy NEO-TRF Hybrid multi-mode reader (BioTek Instruments). All data were carried out in three independent experiments with three technical replicate each.
For a homogenous transfection of MRGPRX4, a master mix of MRGPRX4 DNA was made prior to addition of the RAMP DNA. […]
Data reduction, standard calibration, and transformation of HTRF data were performed as previously described ([51]). Normalized IP1 values were calculated relative to the unstimulated mock-transfected cells (set to 0%) and fully stimulated MRGPRX4 (alone if applicable) (set to 100%).

MRGPRX4 [1] = target: T2, MRGPRX4 (Homo sapiens, UniProt Q96LA9); assay: BRET2 β-arrestin1 recruitment to MRGPRX4; settings: 100 μM agonist (Fig. 5A)
T2 construct: expressed in transfected cells; host or cells: HEK293T
Protocol: (§1) The method for homogenous transfection of β-Arrestin and BRET^2 assay of β-Arrestin recruitment has been described previously ([51]). […] BRET^2 measurements were taken on the BioTek Synergy NEO2 microplate reader.
(§2) For MRGPRX4 DNA titration assays, HEK293T cells were cotransfected with either β-Arrestin1 or β-Arrestin2 with increasing amounts of MRGPRX4 (0.5, 1, or 2 pg/cell).
(§3) The BRET ratio for each sample was determined by calculating the ratio of the light intensity emitted by the GFP10 (515 nm) (acceptor) over the light intensity emitted by the RLuc3 (395 nm) (donor). Net BRET^2 was determined by subtracting the basal BRET^2 (β-arrestin-RLuc3 only) signal from the BRET^2 signals. All BRET values were normalized to the MRGPRX4-only condition.

MRGPRX4 [2] = target: T2, MRGPRX4; assay: BRET2 β-arrestin2 recruitment to MRGPRX4; settings: 100 μM agonist (Fig. 5B, C)
Description: as §1, §2
To measure the time-course of β-Arrestin2 recruitment to MRGPRX4 and CALCRL, the transfection and general procedure described above was followed, with the modification that Prolume Purple was added first, followed by addition of the appropriate agonists ([51]).
as §3

T1 sequence (Q96LA9 whole entry): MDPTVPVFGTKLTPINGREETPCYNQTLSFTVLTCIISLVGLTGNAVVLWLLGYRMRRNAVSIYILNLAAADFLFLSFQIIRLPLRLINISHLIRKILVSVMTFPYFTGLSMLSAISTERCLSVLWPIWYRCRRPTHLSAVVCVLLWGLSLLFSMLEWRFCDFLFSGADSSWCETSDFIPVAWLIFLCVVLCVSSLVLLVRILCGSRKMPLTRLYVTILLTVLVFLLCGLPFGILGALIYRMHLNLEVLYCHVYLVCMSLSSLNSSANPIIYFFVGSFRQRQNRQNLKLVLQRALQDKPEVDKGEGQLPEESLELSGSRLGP
T2 sequence (Q96LA9 whole entry): as above

What does the source list for C[C@H](CCC(=O)O)[C@H]1CC[C@H]2[C@@H]3CC[C@@H]4C[C@H](O)CC[C@]4(C)[C@H]3C[C@H](O)[C@]12C [DCA, deoxycholic acid]?
activation at 100 µM (MRGPRX4 + RAMP1; ratio MRGPRX4:RAMP1 1:0.25): 91.8%; activation at 20 µM (MRGPRX4 + RAMP1; ratio MRGPRX4:RAMP1 1:0.25): 80.7%; activation at 0.8 µM (MRGPRX4 + RAMP1; ratio MRGPRX4:RAMP1 1:0.25): 27.4%; activation at […] (MRGPRX4 + RAMP1; ratio MRGPRX4:RAMP1 1:0.25): 30.3%; activation at 0.032 µM (MRGPRX4 + RAMP1; ratio MRGPRX4:RAMP1 1:0.25): 28.5%; activation at 100 µM (MRGPRX4 + RAMP1; ratio MRGPRX4:RAMP1 1:0.5): 103%; activation at 20 µM (MRGPRX4 + RAMP1; ratio MRGPRX4:RAMP1 1:0.5): 62.7%; activation at 4 µM (MRGPRX4 + RAMP1; ratio MRGPRX4:RAMP1 1:0.5): 38.6%; activation at 0.8 µM (MRGPRX4 + RAMP1; ratio MRGPRX4:RAMP1 1:0.5): 26.5%; activation at […] (MRGPRX4 + RAMP1; ratio MRGPRX4:RAMP1 1:0.5): 22.5%; activation at 0.032 µM (MRGPRX4 + RAMP1; ratio MRGPRX4:RAMP1 1:0.5): 22.6%; activation at 20 µM (MRGPRX4 + RAMP1; ratio MRGPRX4:RAMP1 1:1): 61.5%; activation at 4 µM (MRGPRX4 + RAMP1; ratio MRGPRX4:RAMP1 1:1): 34.6%; activation at 0.8 µM (MRGPRX4 + RAMP1; ratio MRGPRX4:RAMP1 1:1): 30.1%; activation at […] (MRGPRX4 + RAMP1; ratio MRGPRX4:RAMP1 1:1): 22.8%; activation at 20 µM (MRGPRX4 + RAMP1; ratio MRGPRX4:RAMP1 1:2): 59.4%; activation at 4 µM (MRGPRX4 + RAMP1; ratio MRGPRX4:RAMP1 1:2): 29.7%; activation at 0.8 µM (MRGPRX4 + RAMP1; ratio MRGPRX4:RAMP1 1:2): 22%; activation at […] (MRGPRX4 + RAMP1; ratio MRGPRX4:RAMP1 1:2): 15.8%; Emax (MRGPRX4 + RAMP1; Figure 4a bottom, DNA ratio MRGPRX4:RAMP1 1:0.5, MRGPRX4 alone = 100, read-out: efficacy): 109%; response to agonist, X4:ramp1.I:0.25 (MRGPRX4 + RAMP1): 100.247 and 94.5976; response to agonist, X4:ramp1.I:0.5 (MRGPRX4 + RAMP1): 101.591 and 94.608; response to agonist, X4:ramp1.I:1 (MRGPRX4 + RAMP1): 97.7538 and 86.0836; response to agonist, X4:ramp1.I:2 (MRGPRX4 + RAMP1): 90.6013 and 100.616; IP1 Basal (MRGPRX4 + RAMP1; MRGPRX4 + RAMP1 0.25 pg (Fig. S3), normalized per agonist): 25.16; Emax (MRGPRX4 + RAMP1; MRGPRX4 + RAMP1 0.25 pg (Fig. S3), normalized per agonist, read-out: IP1 Emax): 113%; Emax (MRGPRX4 + RAMP1; MRGPRX4 + RAMP1 0.25 pg (Fig. S3), normalized per agonist, read-out: IP1 span): 87.7%; IP1 Basal (MRGPRX4 + RAMP1; MRGPRX4 + RAMP1 0.5 pg (Fig. S3), normalized per agonist): 24.94; Emax (MRGPRX4 + RAMP1; MRGPRX4 + RAMP1 0.5 pg (Fig. S3), normalized per agonist, read-out: IP1 Emax): 117%; Emax (MRGPRX4 + RAMP1; MRGPRX4 + RAMP1 0.5 pg (Fig. S3), normalized per agonist, read-out: IP1 span): 92%; IP1 Basal (MRGPRX4 + RAMP1; MRGPRX4 + RAMP1 1 pg (Fig. S3), normalized per agonist): 22.25; Emax (MRGPRX4 + RAMP1; MRGPRX4 + RAMP1 1 pg (Fig. S3), normalized per agonist, read-out: IP1 Emax): 118%; Emax (MRGPRX4 + RAMP1; MRGPRX4 + RAMP1 1 pg (Fig. S3), normalized per agonist, read-out: IP1 span): 95.8%; IP1 Basal (MRGPRX4 + RAMP1; MRGPRX4 + RAMP1 2 pg (Fig. S3), normalized per agonist): 17.30; Emax (MRGPRX4 + RAMP1; MRGPRX4 + RAMP1 2 pg (Fig. S3), normalized per agonist, read-out: IP1 Emax): 112%; Emax (MRGPRX4 + RAMP1; MRGPRX4 + RAMP1 2 pg (Fig. S3), normalized per agonist, read-out: IP1 span): 94.5%; β-arrestin1 recruitment to MRGPRX4 (MRGPRX4 [1]): did not recruit β-arrestin1; β-arrestin2 recruitment to MRGPRX4 (MRGPRX4 [2]): did not observe any β-arrestin2 recruitment

Which results are given for C[C@H](CCC(=O)NCCS(=O)(=O)O)[C@H]1CC[C@H]2[C@@H]3CC[C@@H]4C[C@H](O)CC[C@]4(C)[C@H]3C[C@H](O)[C@]12C [TDCA, Taurodeoxycholic acid]?
response to agonist, X4:ramp1.I:0.25 (MRGPRX4 + RAMP1): 91.5401 and 91.7191; response to agonist, X4:ramp1.I:0.5 (MRGPRX4 + RAMP1): 85.1903 and 91.5141; response to agonist, X4:ramp1.I:1 (MRGPRX4 + RAMP1): 95.31 and 91.9832; response to agonist, X4:ramp1.I:2 (MRGPRX4 + RAMP1): 89.0717 and 99.7164
